# Reference: patent US20220195384A1, “COMPOSITION FOR PROMOTING PRODUCTION OF STEM CELL-DERIVED EXOSOMES AND INCREASING STEMNESS” (BREXOGEN INC., priority 2019, published 2022)
# Tests used:
# Format in all cases: cell-based
# [1] = tested on: primary umbilical cord-derived mesenchymal stem cells; assay: Stem cell proliferation (CCK, absorbance 450 nm) after pretreatment; settings: 10 ng/mL interferon-γ pretreatment one week; 24 h culture, CCK 4 h
# Protocol: (§1) In a culture medium [high glucose DMEM (Gibco, Cat no. 11995-065); 10% fetal bovine serum (HyClone), 1% MEM non-essential amino acids solution (100×) (Gibco, Cat no. 11140-050)] containing 20 nM of exendin-4, primary umbilical cord-derived mesenchymal stem cells (ATCC No. PCS-500-010; Lot No. 63822428) were cultured for one week.
# as §1, with “10” for “20”, “PMA,” for “exendin-4,”
# as §1, with “10 ng/mL interferon-γ,” for “20 nM of exendin-4,”
# as §1, with “10 μM” for “20 nM”, “tetrandrine,” for “exendin-4,”
# as §1, with “10 μg/mL hyaluronic acid,” for “20 nM of exendin-4,”
# as §1, with “30” for “20”, “substance P,” for “exendin-4,”
# as §1, with “10” for “20”, “resveratrol,” for “exendin-4,”
# as §1, with “10 μM” for “20 nM”, “lanifibranor,” for “exendin-4,”
# (§2) Mesenchymal stem cells and the exendin-4-pretreated mesenchymal stem cells of the Example were each seeded at a density of 3,000 cells/well into 96-well plates containing 100 μL of a culture medium [high glucose DMEM (Gibco, Cat no. 11995-065), 10% fetal bovine serum (HyClone), 1% MEM non-essential amino acids solution (100×) (Gibco, Cat no. 11140-050)] per well and cultured for 24 hours in a CO2 incubator. Then, CCK solution (10 μL/well) was added, and incubation was continued for 4 hours in the CO2 incubator, followed by reading absorbance at a wavelength of 450 nm (420-480 nm) to determine proliferation.
# as §2, with “PMA-pretreated” for “exendin-4-pretreated”, “proliferation. […]” for “proliferation.”
# [2] = tested on: primary umbilical cord-derived mesenchymal stem cells; assay: Number of exosomes by nanoparticle tracking assay (NanoSight NS300); settings: 10 ng/mL interferon-γ pretreatment one week
# Protocol: as §1
# (§3) After completion of culturing, the mesenchymal stem cells pretreated with exendin-4 were washed and additionally cultured for 72 hours in a culture medium supplemented with 10% fetal bovine serum (FBS) free of exosomes. The reason of employing exosome-free FBS was to prevent FBS-derived exosomes other than those secreted from the cells from being incorporated because generally used FBS contained a large amount of exosomes derived from bovine serum.
# (§4) After 72 hours of culturing, the culture medium in which the pretreated mesenchymal stem cells were cultured was taken and centrifuged at 300×g for 10 min to remove residual cells and cell debris. The supernatant was filtered through a 0.22 μm filter, followed by centrifugation at 10,000×g and 4° C. for 70 min in a high-speed centrifuge. The supernatant thus obtained was subjected again to ultracentrifugation at 100,000×g and 4° C. for 90 min. The exosomes obtained as a pellet were diluted in PBS (phosphate buffered saline) before use in the following experiments.
# as §1, with “10” for “20”, “PMA,” for “exendin-4,”
# as §3, with “PMA” for “exendin-4”
# as §1, with “10 ng/mL interferon-γ,” for “20 nM of exendin-4,”
# as §3, with “interferon-γ” for “exendin-4”
# as §1, with “10 μM” for “20 nM”, “tetrandrine,” for “exendin-4,”
# as §3, with “tetrandrine” for “exendin-4”, “serum. […]” for “serum.”
# [3] = tested on: primary umbilical cord-derived mesenchymal stem cells; assay: Content of exosomal RNA (NanoDrop); settings: 10 ng/mL interferon-γ pretreatment one week
# Protocol: as §1, §3, §4
# as §1, with “10” for “20”, “PMA,” for “exendin-4,”
# as §3, with “PMA” for “exendin-4”
# as §1, with “10 ng/mL interferon-γ,” for “20 nM of exendin-4,”
# as §3, with “interferon-γ” for “exendin-4”
# as §1, with “10 μM” for “20 nM”, “tetrandrine,” for “exendin-4,”
# as §3, with “tetrandrine” for “exendin-4”, “serum. […]” for “serum.”
# [4] = tested on: primary umbilical cord-derived mesenchymal stem cells; assay: Content of exosomal protein (Bradford analysis, 595 nm); settings: 10 ng/mL interferon-γ pretreatment one week
# Protocol: as §1, §3, §4
# as §1, with “10” for “20”, “PMA,” for “exendin-4,”
# as §3, with “PMA” for “exendin-4”
# as §1, with “10 ng/mL interferon-γ,” for “20 nM of exendin-4,”
# as §3, with “interferon-γ” for “exendin-4”
# as §1, with “10 μM” for “20 nM”, “tetrandrine,” for “exendin-4,”
# as §3, with “tetrandrine” for “exendin-4”, “serum. […]” for “serum.”
substance,measurement,setting,value
interferon-γ [IFNγ MSC-Exo = exosomes of IFNγ-treated mesenchymal stem cells],increase in proliferation relative to non-treated mesenchymal stem cells,[1],about 242%
same,proliferation ratio relative to non-treated mesenchymal stem cells (1),[1],2.42
same,fold more exosomes than non-treated mesenchymal stem cells,[2],about 6.7 fold
same,"No. of exosome particles, yield per 10^6 cells","[2]; then 72 h exosome-free FBS medium, non-treated 2.3",15.4 10^9
same,fold greater exosomal RNA than non-treated mesenchymal stem cells,[3],about 5.0 fold
same,"Exosomal RNA, yield per 10^6 cells","[3]; then 72 h exosome-free FBS medium, non-treated 31.0",155.0 ng
same,fold greater exosomal proteins than non-treated mesenchymal stem cells,[4],about 6.2 fold
same,"Exosomal protein, yield per 10^6 cells","[4]; then 72 h exosome-free FBS medium, non-treated 2.0",12.4 ug
